Biological target: recombinant human integrin αvβ6 (Homo sapiens (Human), UniProt P06756+P18564)
Test: Solid phase integrin αvβ6 binding assay
Settings: IC50 presented in four ranges; read-out: αvβ6 Inhibition IC50 (nM) - range
Description: (§1) Microplates were coated with recombinant human integrin αvβ6 (2 µg/mL) in PBS (100 µL/well 25° C., overnight). The coating solution was removed, washed with wash buffer (0.05% Tween 20; 0.5 mM MnCl2; in 1x TBS). The plate was blocked with 200 µL/well of Block Buffer (1% BSA; 5% sucrose; 0.5 mM MnCl2; in 1x TBS) at 37° C. for 2 h. Dilutions of testing compounds and recombinant TGFβ1 LAP (0.67 µg/mL) in binding buffer (0.05% BSA; 2.5% sucrose; 0.5 mM MnCl2; in 1x TBS) were added. The plate was incubated for 2 hours at 25° C., washed, and incubated for 1 hour with Biotin-Anti-hLAP. Bound antibody was detected by peroxidase-conjugated streptavidin. The IC50 values for testing compounds were calculated by a four-parameter logistic regression.
The compounds tested were compound samples prepared according to procedures described in the Synthetic Examples section, with the stereochemical purity as indicated in the Examples.
as §1, with “A third series of exemplary compounds was selected for testing in the solid phase integrin αvβ6 binding assay. The compounds tested were compound samples prepared according to procedures described in the Synthetic Examples section, with the stereochemical purity as indicated in the Examples. As in Example B1, microplates” for “Microplates”

Sequence of recombinant human integrin αvβ6 (P06756 31-889): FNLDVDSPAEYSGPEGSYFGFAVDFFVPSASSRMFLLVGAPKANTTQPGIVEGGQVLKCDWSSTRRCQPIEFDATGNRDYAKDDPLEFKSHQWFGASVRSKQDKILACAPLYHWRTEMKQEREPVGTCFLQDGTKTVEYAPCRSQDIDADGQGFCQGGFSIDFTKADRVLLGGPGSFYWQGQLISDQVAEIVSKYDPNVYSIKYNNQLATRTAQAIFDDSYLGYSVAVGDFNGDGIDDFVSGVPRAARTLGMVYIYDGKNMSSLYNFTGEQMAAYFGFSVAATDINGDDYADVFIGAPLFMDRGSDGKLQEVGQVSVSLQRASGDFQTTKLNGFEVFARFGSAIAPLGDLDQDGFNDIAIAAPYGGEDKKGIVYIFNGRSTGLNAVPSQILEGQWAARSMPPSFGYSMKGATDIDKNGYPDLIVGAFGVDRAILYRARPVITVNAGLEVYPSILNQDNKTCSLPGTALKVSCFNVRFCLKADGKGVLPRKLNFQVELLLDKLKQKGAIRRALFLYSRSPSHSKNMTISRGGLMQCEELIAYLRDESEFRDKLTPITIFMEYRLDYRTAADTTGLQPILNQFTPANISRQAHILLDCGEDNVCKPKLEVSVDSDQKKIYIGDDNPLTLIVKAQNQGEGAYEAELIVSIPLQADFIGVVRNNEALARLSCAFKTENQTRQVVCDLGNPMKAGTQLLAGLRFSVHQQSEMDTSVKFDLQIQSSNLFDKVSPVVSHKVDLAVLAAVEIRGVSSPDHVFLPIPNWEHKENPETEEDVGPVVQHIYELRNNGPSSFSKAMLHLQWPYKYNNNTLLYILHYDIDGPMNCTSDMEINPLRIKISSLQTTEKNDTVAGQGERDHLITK
Sequence of recombinant human integrin αvβ6 (P06756 890-992 partner): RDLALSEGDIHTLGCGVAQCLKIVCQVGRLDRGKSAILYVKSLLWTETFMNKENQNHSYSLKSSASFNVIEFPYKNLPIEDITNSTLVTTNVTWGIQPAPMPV
Sequence of recombinant human integrin αvβ6 (P18564 22-707): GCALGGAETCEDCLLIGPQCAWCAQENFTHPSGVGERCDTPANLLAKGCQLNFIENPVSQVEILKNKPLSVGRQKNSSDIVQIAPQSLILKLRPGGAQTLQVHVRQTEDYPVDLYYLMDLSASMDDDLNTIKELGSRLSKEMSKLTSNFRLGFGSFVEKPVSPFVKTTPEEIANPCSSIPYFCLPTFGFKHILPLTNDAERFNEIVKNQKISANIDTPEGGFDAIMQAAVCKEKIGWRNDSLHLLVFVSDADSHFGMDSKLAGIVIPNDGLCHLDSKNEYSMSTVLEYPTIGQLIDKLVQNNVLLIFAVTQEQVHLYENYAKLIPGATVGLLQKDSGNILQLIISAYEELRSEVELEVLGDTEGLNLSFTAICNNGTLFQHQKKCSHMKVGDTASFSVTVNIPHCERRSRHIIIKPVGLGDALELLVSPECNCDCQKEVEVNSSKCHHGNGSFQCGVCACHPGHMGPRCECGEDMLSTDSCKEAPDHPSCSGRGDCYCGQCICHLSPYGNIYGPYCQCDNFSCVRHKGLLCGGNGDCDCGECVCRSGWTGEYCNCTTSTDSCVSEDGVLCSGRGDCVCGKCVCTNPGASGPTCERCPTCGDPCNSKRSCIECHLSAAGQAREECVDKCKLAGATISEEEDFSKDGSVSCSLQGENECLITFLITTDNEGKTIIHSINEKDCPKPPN

| IC50 [nM] | SMILES |
| --- | --- |
| < 50 | CO[C@H](C)CN(CCCCc1ccc2c(n1)NCCC2)CC[C@H](Nc1nccnc1C#N)C(=O)O [compound 76] |
| < 50 | CO[C@H](C)CN(CCCCc1ccc2c(n1)NCCC2)CC[C@H](Nc1cc(-n2cccn2)ncn1)C(=O)O [compound 77] |
| < 50 | CO[C@H](C)CN(CCCCc1ccc2c(n1)NCCC2)CC[C@H](Nc1ncc(F)cn1)C(=O)O [compound 78] |
| < 50 | CO[C@H](C)CN(CCCCc1ccc2c(n1)NCCC2)CC[C@H](Nc1ncnc2cn[nH]c12)C(=O)O [compound 79] |
| < 50 | CO[C@H](C)CN(CCCCc1ccc2c(n1)NCCC2)CC[C@H](Nc1ncncc1-c1ccccc1)C(=O)O [compound 81] |
| < 50 | Cn1ncc2c(N[C@@H](CCN(CCCCc3ccc4c(n3)NCCC4)CCOc3ccccc3)C(=O)O)ncnc21 [compound 82] |
| < 50 | O=C(O)[C@H](CCN(CCCCc1ccc2c(n1)NCCC2)CCOc1ccccc1)Nc1ncc(Br)cn1 [compound 83] |
| 250 to 1000 | CO[C@H](C)CN(CCCCc1ccc2c(n1)NCCC2)CC[C@H](Nc1ncc(C#N)cn1)C(=O)O [compound 84] |
| 250 to 1000 | CO[C@H](C)CN(CCCCc1ccc2c(n1)NCCC2)CC[C@H](Nc1ncc(C(F)(F)F)cn1)C(=O)O [compound 85] |
| 50 to 250 | CO[C@H](C)CN(CCCCc1ccc2c(n1)NCCC2)CC[C@H](Nc1ncc(Br)cn1)C(=O)O [compound 86] |
| 250 to 1000 | CO[C@H](C)CN(CCCCc1ccc2c(n1)NCCC2)CC[C@H](Nc1ccnc(C(F)(F)F)n1)C(=O)O [compound 87] |
| > 1000 | Cn1ncc2c(N[C@@H](CCN(CCCCc3ccc4c(n3)NCCC4)CC(F)F)C(=O)O)ncnc21 [compound 88] |
| < 50 | O=C(O)[C@H](CCN(CCCCc1ccc2c(n1)NCCC2)CCOc1ccccc1)Nc1ncc(C(F)(F)F)cn1 [compound 89] |
| < 50 | O=C(O)[C@H](CCN(CCCCc1ccc2c(n1)NCCC2)CCOc1ccccc1)Nc1ncnc2[nH]ncc12 [compound 90] |
| < 50 | O=C(O)[C@H](CCN(CCCCc1ccc2c(n1)NCCC2)CCOc1ccccc1)Nc1cc(-n2cccn2)ncn1 [compound 91] |
| < 50 | O=C(O)[C@H](CCN(CCCCc1ccc2c(n1)NCCC2)CCOc1ccccc1)Nc1ccnc(C(F)(F)F)n1 [compound 92] |
| < 50 | O=C(O)[C@H](CCN(CCCCc1ccc2c(n1)NCCC2)CCOc1ccccc1)Nc1cc(-c2ccccc2)ncn1 [compound 93] |
| < 50 | O=C(O)[C@H](CCN(CCCCc1ccc2c(n1)NCCC2)CCOc1ccccc1)Nc1nc(-c2cccnc2)nc2ccccc12 [compound 94] |
| > 1000 | O=C(O)[C@H](CCN(CCCCc1ccc2c(n1)NCCC2)CC(F)F)Nc1ncc(C(F)(F)F)cn1 [compound 95] |
| > 1000 | O=C(O)[C@H](CCN(CCCCc1ccc2c(n1)NCCC2)CC(F)F)Nc1ncc(Br)cn1 [compound 96] |
| > 1000 | O=C(O)[C@H](CCN(CCCCc1ccc2c(n1)NCCC2)CC(F)F)Nc1ccnc(C(F)(F)F)n1 [compound 97] |
| > 1000 | O=C(O)[C@H](CCN(CCCCc1ccc2c(n1)NCCC2)CC(F)F)Nc1cc(-n2cccn2)ncn1 [compound 98] |
| 250 to 1000 | O=C(O)[C@H](CCN(CCCCc1ccc2c(n1)NCCC2)CC(F)F)Nc1nc(-c2cccnc2)nc2ccccc12 [compound 99] |
| < 50 | CO[C@H](C)CN(CCCCc1ccc2c(n1)NCCC2)CC[C@H](Nc1nc(-c2cccnc2)nc2ccccc12)C(=O)O [compound 100] |
| 50 to 250 | Cn1ncc2c(N[C@@H](CCN(CCCCc3ccc4c(n3)NCCC4)CCS(C)(=O)=O)C(=O)O)ncnc21 [compound 101] |
| > 1000 | CS(=O)(=O)CCN(CCCCc1ccc2c(n1)NCCC2)CC[C@H](Nc1ncc(C(F)(F)F)cn1)C(=O)O [compound 102] |
| > 1000 | CS(=O)(=O)CCN(CCCCc1ccc2c(n1)NCCC2)CC[C@H](Nc1ncc(Br)cn1)C(=O)O [compound 103] |
| > 1000 | CS(=O)(=O)CCN(CCCCc1ccc2c(n1)NCCC2)CC[C@H](Nc1ccnc(C(F)(F)F)n1)C(=O)O [compound 104] |

From US20230293519A1, “INTEGRIN INHIBITORS AND USES THEREOF IN COMBINATION WITH OTHER AGENTS” (Pliant Therapeutics, Inc., priority 2021, published 2023)
